Inconclusive results and toxic doses are left out. Cut-off read from the data, not from the text of the source: active = T/C of 150% or more; inactive = T/C below 125%.
Test system: L1210 leukemia ip in BDF1 mice, survival T/C
Assay: NCI In Vivo Anticancer Drug Screen. Data for tumor model L1210 Leukemia (intraperitoneal) in B6D2F1 (BDF1) mice
Conditions: endpoint: mean survival time, higher = longer survival
Summary of the method: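 Read-out is survival time, reported as the treated-group measurement over the vehicle-control measurement.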

[1] = dose: 100.0 mg/kg/injection, schedule: Q01DX009 (ip), vehicle: Klucel (hydroxypropylcellulose) (HPC)
[2] = dose: 200.0 mg/kg/injection, schedule: Q01DX009 (ip), vehicle: Klucel (hydroxypropylcellulose) (HPC)
[3] = dose: 400.0 mg/kg/injection, schedule: Q01DX009 (ip), vehicle: Klucel (hydroxypropylcellulose) (HPC)
[4] = dose: 100.0 mg/kg/injection, schedule: Q04DX002 (ip), vehicle: Klucel (hydroxypropylcellulose) (HPC)
[5] = dose: 200.0 mg/kg/injection, schedule: Q04DX002 (ip), vehicle: Klucel (hydroxypropylcellulose) (HPC)
[6] = dose: 400.0 mg/kg/injection, schedule: Q04DX002 (ip), vehicle: Klucel (hydroxypropylcellulose) (HPC)
[7] = dose: 100.0 mg/kg/injection, schedule: Q01DX009 (ip), vehicle: saline with Tween-80
[8] = dose: 200.0 mg/kg/injection, schedule: Q01DX009 (ip), vehicle: saline with Tween-80
[9] = dose: 400.0 mg/kg/injection, schedule: Q01DX009 (ip), vehicle: saline with Tween-80
[10] = dose: 100.0 mg/kg/injection, schedule: Q01DX001 (ip), vehicle: saline
[11] = dose: 200.0 mg/kg/injection, schedule: Q01DX001 (ip), vehicle: saline
[12] = dose: 400.0 mg/kg/injection, schedule: Q01DX001 (ip), vehicle: saline
[13] = dose: 100.0 mg/kg/injection, schedule: Q04DX003 (ip), vehicle: saline with Tween-80
[14] = dose: 200.0 mg/kg/injection, schedule: Q04DX003 (ip), vehicle: saline with Tween-80
[15] = dose: 400.0 mg/kg/injection, schedule: Q04DX003 (ip), vehicle: saline with Tween-80
[16] = dose: 100.0 mg/kg/injection, schedule: Q04DX003 (ip), vehicle: Klucel (hydroxypropylcellulose) (HPC)
[17] = dose: 200.0 mg/kg/injection, schedule: Q04DX003 (ip), vehicle: Klucel (hydroxypropylcellulose) (HPC)
[18] = dose: 400.0 mg/kg/injection, schedule: Q04DX003 (ip), vehicle: Klucel (hydroxypropylcellulose) (HPC)
[19] = dose: 100.0 mg/kg/injection, schedule: Q01DX001 (ip), vehicle: Klucel (hydroxypropylcellulose) (HPC)
[20] = dose: 200.0 mg/kg/injection, schedule: Q01DX001 (ip), vehicle: Klucel (hydroxypropylcellulose) (HPC)
[21] = dose: 400.0 mg/kg/injection, schedule: Q01DX001 (ip), vehicle: Klucel (hydroxypropylcellulose) (HPC)
[22] = dose: 50.0 mg/kg/injection, schedule: Q04DX003 (ip), vehicle: saline

Measured: T/C

CCOc1ccc(N2C(C#N)c3ccccc3OC2c2ccccc2O)cc1 (centres undefined)
inactive: [1] 97 % of control | [2] 97 % of control | [3] 101 % of control

CCCCCCCCCC(O)CCCC(O)C(O)CCCCCCC(=O)O (centres undefined)
inactive: [4] 91 % of control | [5] 91 % of control | [6] 91 % of control

O=C1CC2CCCC(CCO)(C2)N1 (centres undefined)
inactive: dose: 100.0 mg/kg/injection, schedule: Q01DX001 (ip), vehicle: carboxymethylcellulose (CMC) 91 % of control | dose: 200.0 mg/kg/injection, schedule: Q01DX001 (ip), vehicle: carboxymethylcellulose (CMC) 94 % of control | dose: 400.0 mg/kg/injection, schedule: Q01DX001 (ip), vehicle: carboxymethylcellulose (CMC) 103 % of control

CC(C)C1=CC23CCC4C(C)(C(=O)O)CCCC4(C)C2CC13 (centres undefined)
inactive: [7] 88 % of control | [8] 90 % of control | [9] 91 % of control

O=C(CCl)c1ccc(Oc2ccc(C(=O)CCl)cc2)cc1
inactive: dose: 50.0 mg/kg/injection, schedule: Q01DX001 (ip), vehicle: saline 100 % of control | [10] 97 % of control | [11] 97 % of control | [12] 105 % of control

ClC1(Cl)CC1c1ccccc1 (centres undefined)
inactive: [7] 101 % of control | [8] 91 % of control

Cc1ccc(OS(=O)(=O)c2cccc([N+](=O)[O-])c2)cc1
inactive: [13] 102 % of control | [14] 97 % of control | [15] 100 % of control

S=c1sc2ccccc2n1CN1CCCCC1
inactive: [1] 95 % of control | [16] 92 % of control | [2] 103 % of control | [17] 97 % of control | [3] 105 % of control | [18] 96 % of control

CC1=CC(=O)CC(C)(C)C1
inactive: [7] 101 % of control | [8] 101 % of control | [9] 90 % of control

COc1ccc2[nH]c3c(C)c4c(c(C)c3c2c1)CN(C)CC4
inactive: dose: 29.0 mg/kg/injection, schedule: Q01DX Z (ip), vehicle: saline 96 % of control | dose: 44.0 mg/kg/injection, schedule: Q01DX Z (ip), vehicle: saline 98 % of control | dose: 66.0 mg/kg/injection, schedule: Q01DX Z (ip), vehicle: saline 102 % of control | [10] 105 % of control | dose: 100.0 mg/kg/injection, schedule: Q01DX Z (ip), vehicle: saline 98 % of control | dose: 150.0 mg/kg/injection, schedule: Q01DX Z (ip), vehicle: saline 100 % of control | [11] 100 % of control | [12] 102 % of control

O=C(/C=C\c1ccc(O)c(O)c1)OC1C(O)CC(OC(=O)/C=C/c2ccc(O)c(O)c2)(C(=O)O)CC1O (centres undefined)
inactive: dose: 100.0 mg/kg/injection, schedule: Q01DX009 (ip), vehicle: saline 105 % of control | dose: 200.0 mg/kg/injection, schedule: Q01DX009 (ip), vehicle: saline 91 % of control | dose: 400.0 mg/kg/injection, schedule: Q01DX009 (ip), vehicle: saline 94 % of control

O=C(c1ccccc1)C1NC1c1ccc([N+](=O)[O-])cc1 (centres undefined)
inactive: dose: 50.0 mg/kg/injection, schedule: Q01DX001 (ip), vehicle: Klucel (hydroxypropylcellulose) (HPC) 89 % of control | [19] 97 % of control | [20] 97 % of control | [21] 92 % of control

COc1cccc(NC(=O)NCCN(C)c2ccccc2)c1
inactive: [1] 104 % of control | [2] 88 % of control | [3] 92 % of control

Cc1ccc(S(=O)(=O)NC(Cc2ccccc2)C(=O)Nc2cccnc2)cc1 (centres undefined)
inactive: [19] 91 % of control | [20] 100 % of control | [21] 88 % of control

CC(=O)OCC(CCC(C)C)=C(C)C
inactive: [7] 98 % of control | [13] 97 % of control | [8] 98 % of control | [14] 92 % of control | [9] 102 % of control | [15] 92 % of control

CCC(=O)N/N=C(\N)N[N+](=O)[O-]
inactive: dose: 87.5 mg/kg/injection, schedule: Q04DX003 (ip), vehicle: Klucel (hydroxypropylcellulose) (HPC) 102 % of control | dose: 175.0 mg/kg/injection, schedule: Q04DX003 (ip), vehicle: Klucel (hydroxypropylcellulose) (HPC) 105 % of control | dose: 350.0 mg/kg/injection, schedule: Q04DX003 (ip), vehicle: Klucel (hydroxypropylcellulose) (HPC) 103 % of control

CCOc1ccc(NC(=O)Nc2cccc(C(F)(F)F)c2)cc1
inactive: [1] 91 % of control | [2] 96 % of control | [3] 93 % of control

O=C(O)c1ccc(F)cc1F
inactive: [4] 121 % of control | [5] 105 % of control | [6] 98 % of control

O=C1C=CC(=O)N1c1ccc2c(c1)oc(=O)c1ccccc12
inactive: dose: 37.5 mg/kg/injection, schedule: Q01DX009 (ip), vehicle: saline with Tween-80 92 % of control | [22] 96 % of control | [10] 97 % of control | dose: 100.0 mg/kg/injection, schedule: Q04DX003 (ip), vehicle: saline 96 % of control | [11] 92 % of control | dose: 200.0 mg/kg/injection, schedule: Q04DX003 (ip), vehicle: saline 97 % of control

COCC(=N)C(C#N)(OC)C(=O)c1ccccc1 (centres undefined)
inactive: dose: 75.0 mg/kg/injection, schedule: Q01DX001 (ip), vehicle: other 101 % of control | dose: 150.0 mg/kg/injection, schedule: Q01DX001 (ip), vehicle: other 90 % of control

CCCCNC(C)(C)CS
inactive: dose: 6.25 mg/kg/injection, schedule: Q01DX009 (ip), vehicle: saline 105 % of control | dose: 12.5 mg/kg/injection, schedule: Q01DX009 (ip), vehicle: saline 94 % of control | dose: 12.5 mg/kg/injection, schedule: Q04DX003 (ip), vehicle: saline 100 % of control | dose: 25.0 mg/kg/injection, schedule: Q01DX009 (ip), vehicle: saline 96 % of control | dose: 25.0 mg/kg/injection, schedule: Q04DX003 (ip), vehicle: saline 94 % of control | dose: 50.0 mg/kg/injection, schedule: Q01DX009 (ip), vehicle: saline 102 % of control | [22] 102 % of control | dose: 75.0 mg/kg/injection, schedule: Q01DX009 (ip), vehicle: saline 105 % of control

CCCCCCCCCCCCCCCC(=O)N(CC#N)CC#N
inactive: [16] 91 % of control | [17] 92 % of control | [18] 89 % of control

NC(N)=Nc1nc(N)nc(N)n1
inactive: dose: 50.0 mg/kg/injection, schedule: Q01DX009 (ip), vehicle: saline with Tween-80 108 % of control

Nc1nc2nc(CCc3ccccc3)cnc2c(=O)[nH]1
inactive: dose: 25.0 mg/kg/injection, schedule: Q01DX001 (ip), vehicle: saline with Tween-80 96 % of control | dose: 50.0 mg/kg/injection, schedule: Q01DX001 (ip), vehicle: saline with Tween-80 93 % of control | dose: 100.0 mg/kg/injection, schedule: Q01DX001 (ip), vehicle: saline with Tween-80 90 % of control
